Test results as given in patent publication US20070187646A1, “Surface-active amines and methods of using same to impede corrosion” (priority 2006, published 2007).
“And” between values parts separate entries of the source, which are not always exact repeats. Identical values can stand only once. “Also recorded” adds a separate entry of the source. Like-named read-outs stand apart in the source and are kept apart here.

Assays:
[1] = Quartz crystal microbalance weight loss of amine-treated iron surface in unstirred 0.5 M sodium sulfate solution; settings: for percent wt. loss: amine-treated iron surface, 6.5 hours in unstirred 0.5 M Na2SO4 (pH=5.8); for time when wt. loss commenced: unstirred 0.5 M Na2SO4 (pH=5.8), 6.5 hours
Procedure: Weightloss measurements were performed by immersing the amine-coated iron surface in 0.5 M sodium sulfate solution (pH=5.8), and comparing the results observed with those obtained in case of an unprotected iron surface. From the results achieved, the following four major conclusions follow:
Table I below correlates the pKa of an amine with the percentage weight loss observed (using the quartz crystal microbalance technique) when the amine-treated iron surface was immersed for 6.5 hours in 0.5 M Na2SO4 solution (pH=5.8). See pKa prediction of organic acids and bases, D. D. Perrin, B. Dempsey, E. P. Serjeant (1981), Chapman and Hall. Physical methods in Heterocyclic Chemistry Vol. 1, A. A. Katritzky (1963), Academic Press.

[2] = QCM weight loss of amine-treated iron deposit in "open" pH 2.6 sulfate solution
[3] = Quartz crystal microbalance weight loss of amine-treated iron surface in unstirred 0.5 M sodium sulfate solution; settings: "open" pH 5.9 sulfate solution
[4] = cited from earlier work
[5] = QCM weight loss of DBU-treated iron deposit in Ar-purged pH 2.6 sulfate solution; settings: no dissolved oxygen, pH 2.6 sodium sulfate solution
Procedure: This conclusion was arrived at by examining the effect of DBU on the corrosion of iron in Ar-purged (no dissolved oxygen) pH 2.6 (acidic) sodium sulfate solution using the QCM technique, and comparing the results obtained with those recorded in “open” (oxygen containing) pH 2.6 and 5.9 solutions.
The apparatus for the experiments performed under purged conditions (as illustrated in FIG. 6) consists of a 500 ml Pyrex reaction vessel with a 4-necked cover. The reaction vessel and the cover are retained intact together during the experiment with the aid of a horse-shoe clamp. The QCM is inserted through the central neck, after plating the iron deposit onto the crystal. A pH electrode is inserted through one of the necks, and an inlet for Ar gas through the other. The fourth neck is stoppered when not used. The pH 2.6 sulfate solution is purged with Ar gas for 1 hour before exposure of the iron deposit (protected/unprotected) to the environment. See D. D. Perrin, B. Dempsey, E. P. Serjeant, pKa prediction of organic acids and bases, Chapman and Hall, 1981. A. A. Katritzky, Physical methods in Heterocyclic Chemistry Vol. 1, Academic Press, 1963. […]
The DBU-treated iron deposit was immersed in the Ar-purged pH 2.6 solution, and the weightloss and corresponding pH measurements recorded are plotted in FIGS. 7A and 7B. […]

[6] = EQCM amine adsorption on iron in passivating borate buffer (pH 8.4); settings: 15 mM amine
From the text: (§1) All the test solutions were buffered so that the effect of pH variation can be eliminated as much as possible. Thus, amine inhibition effectiveness is directly related to the strength of adsorption of the amine and its molecular structure, independent of pH effects. Here, borate buffer (pH 8.4) was used as passivating environment, whereas phosphate buffer (pH 5.7) was used as corrosive environment.
(§2) Plating of iron deposit (1 u thick) onto the polished gold crystal of the QCM electrode was accomplished from a 200 ml aqueous solution with the following composition:
(§3) For adsorption studies, the deposit was immersed in a passivating buffered solution (borate, pH 8.4, prepared as cited above) for 40 rain. for equilibration, after which 15 mM amine was added to the solution. The variation in frequency upon addition of the amine is quantitatively proportional to the amine adsorbed on the surface of the metal (Sauerbrey equation).
(§4) Deaerated test solutions (no dissolved O2) are prepared by purging the test solutions with argon for 2 hours before the tests and also during the tests.

[7] = EQCM amine inhibition of iron corrosion in corrosive phosphate buffer (pH 5.7); settings: 15 mM amine
From the text: as §1, §2
(§5) For the corrosion inhibition studies, the deposit was immersed in a corrosive buffer solution (phosphate, pH 5.7) for 40 min. for equilibration, and then 15 mM amine was added to the solution.
as §4

[8] = Weight loss of AISI 1018 steel coupons exposed to amine containing steam at 250° F.; settings: 250° F. steam, compared to plain steam
[9] = FTIR phase identification of iron oxides on steel samples exposed to amine containing steam; settings: for hematite in samples exposed for four hours (FTIR): four hours exposure; for exposure time at which hematite formation was observed (FTIR): steam with 3 ppm DBU or 5 ppm morpholine
From the text: The main purpose of this analysis was to observe the relative delay in magnetite transformation to hematite.
Amorphous crystals will produce a variation in peak width, and a slight shift on IR values (Cornell R., and Schwertmann U., 1996). […] Oxyhydroxides absorption hands are as follows: α-FeOOH is known to have a deep well defined pair of sharp peaks at 890 and 795 cm^−1, γ-FeOOH presents an enunciated and deep peak at 1018 cm^−1. β-FeOOH was not expected to be present in the experiment conditions.
FIGS. 42 and 43 show the FTIR spectra of iron oxides formed on steel samples exposed to steam containing 3 ppm of DBU.
FIGS. 46 and 47 show the FTIR spectra of iron oxides formed on steel samples exposed to steam containing 3 ppm of DMA.

[10] = EQCM aniline adsorption on nickel in borate buffer (pH 8.4); settings: borate buffer pH 8.4, aerated
Procedure: (§6) Plating of black nickel deposit (1 u thick) onto the polished gold crystal of the QCM electrode was accomplished from a 200 ml aqueous solution with the following composition:
as §3

[11] = EQCM aniline inhibition of nickel corrosion in phosphate buffer (pH 5.7); settings: phosphate buffer pH 5.7, aerated
Procedure: as §6, §5

[12] = borate buffer pH 8.4, deaerated
[13] = phosphate buffer pH 5.7, aerated
[14] = phosphate buffer pH 5.7, deaerated

| Structure (SMILES) | percent wt. loss [1] | time when wt. loss commenced [1] | effectiveness as corrosion inhibitor in acidic solution ([2]; "open" pH 2.6 solution) | % wt. loss in pH 5.9 solution [3] | % wt. loss in pH 2.6 solution ([2]; "open" pH 2.6 sulfate solution) | adsorption on iron surface ([6]; borate buffer pH 8.4, aerated) | adsorption on iron surface [6, 12] | inhibition of iron corrosion [7, 13] | weight loss / corrosion rate of steel coupons in steam [8] | hematite in samples exposed for four hours (FTIR) [9] | also measured |
| --- | --- | --- | --- | --- | --- | --- | --- | --- | --- | --- | --- |
| COCCCN [3-methoxypropylamine] | 0% | no wt. loss | not effective inhibitors | 0% | – | – | – | – | – | – | % wt. loss in pH 2.6 solution ([2]; "open" pH 2.6 solution, over 60 minutes, probe failed after 60 minutes): 11.19% and 11.19 (probe failed % |
| NCCCCCO [5-amino-1-pentanol] | 4.106% | 90 min | – | 4.106% | – | – | – | – | – | – | pKa ([4]; Table II, 23° C.): 10.46 (23° C.) |
| C1CCC2=NCCCN2CC1 [DBU, 1,8-diazabicyclo[5.4.0]undec-7-ene] | 0% | no wt. loss | good corrosion inhibitors | 0% | 7.2% | forms a monolayer initially and then multilayers; also recorded: Adsorption | still can adsorb on the iron surface; also recorded: adsorption | stops corrosion; also recorded: inhibition | lowest corrosion rate | no hematite was detected | weightloss in Ar-purged pH 2.6 solution [5]: extensive weightless; inhibition of iron corrosion [7, 14]: none of them can stop the iron corrosion; also recorded: no effect; exposure time at which hematite formation was observed (FTIR) [9]: 12 h |
| CCCCNCCCC [N,N-dibutylamine] | 9.3% | 161 minutes, expt. | – | 9.3% | – | – | – | – | – | – | adsorption on iron surface ([6]; borate buffer pH 8.4, aerated, listed as DBA): adsorbs on iron surface; also recorded: adsorption; adsorption on iron surface ([6]; borate buffer pH 8.4, deaerated, listed as DBA): still can adsorb on the iron surface; also recorded: adsorption; inhibition of iron corrosion ([7]; phosphate buffer pH 5.7, aerated, listed as DBA): oxide growth is noted after its adsorption; also recorded: inhibition; inhibition of iron corrosion ([7]; phosphate buffer pH 5.7, deaerated, listed as DBA): none of them can stop the iron corrosion; also recorded: no effect; pKa at 25° C. ([4]; Table I and text): 11.25; pKa at 25° C. ([4]; Table II): 11.25 |
| Nc1ccccc1 [aniline] | – | – | – | – | – | does not have any adsorption | no | no effect on inhibition | – | – | adsorption on iron surface ([6]; borate buffer pH 8.4, aerated, listed as Aniline): no; adsorption on nickel surface [10]: adsorption; inhibition of nickel corrosion [11]: inhibition |
| CC(C)NC(C)C [diisopropylamine] | – | no wt. loss | not effective inhibitors | 0% | 99.23% | – | – | – | – | – | percent wt. loss ([1]; listed as diisoproplyamine): 0% |
| CNC [dimethylamine] | 0.793% | 30 min | not effective inhibitors | 0.793% | 98.4% | – | – | – | oxidation rates less favorable | no hematite was detected | – |
| C1COCCN1 [morpholine] | 8.87% | 110 min | – | 8.87% | – | only weak adsorption; also recorded: little | still can adsorb on the iron surface; also recorded: little | slow and weak | oxidation rates less favorable | some hematite presence | inhibition of iron corrosion [7, 14]: none of them can stop the iron corrosion; exposure time at which hematite formation was observed (FTIR) [9]: started after two hours of exposure |
| C1CCNCC1 [piperidine] | 0.57% | 350 min | good corrosion inhibitors | 0.57% | 10.9% | – | – | – | – | – | – |
